# Laboratory results from patent US12077503B2, “Substituted cyclic amides and their use as herbicides” (FMC CORPORATION, priority 2015, dated 2024).
# Assays:
# Format in all cases: in vivo
# Kochia (Kochia scoparia) [1] = assay: Test A preemergence; settings: Bassia scoparia, pre-emergence, 240 h; for pest or weed control at 125 g/ha: 125 g ai/ha, Preemergence, visual injury rating after approximately 10 d, read-out: Kochia plant response rating (0 to 100 scale, 0 is no effect, 100 is complete control); for pest or weed control at 500 g/ha: 500 g ai/ha, preemergence, visual injury rating about 10 d after treatment, 0 to 100 scale (0 no effect, 100 complete control), read-out: Kochia plant response rating
# Summary of the method: (§1)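 Preemergence soil spray on seeded pots or post-emergence spray on 1–2 leaf plants, in loam–sand blend. Greenhouse ~10 d. Visual rating 0–100 against untreated plants.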
# [2] = system: barnyardgrass (Echinochloa crus-galli); assay: Test A preemergence; settings: Echinochloa crus-galli, pre-emergence, 240 h; for pest or weed control at 125 g/ha: 125 g ai/ha, Preemergence, visual injury rating after approximately 10 d, read-out: Barnyardgrass plant response rating (0 to 100 scale, 0 is no effect, 100 is complete control); for pest or weed control at 500 g/ha: 500 g ai/ha, preemergence, visual injury rating about 10 d after treatment, 0 to 100 scale (0 no effect, 100 complete control), read-out: Barnyardgrass plant response rating
# Summary of the method: as §1
# [3] = system: giant foxtail (Setaria faberii); assay: Test A preemergence; settings: Setaria faberi, pre-emergence, 240 h; for pest or weed control at 125 g/ha: 125 g ai/ha, Preemergence, visual injury rating after approximately 10 d, read-out: Foxtail, Giant plant response rating (0 to 100 scale, 0 is no effect, 100 is complete control); for pest or weed control at 500 g/ha: 500 g ai/ha, preemergence, visual injury rating about 10 d after treatment, 0 to 100 scale (0 no effect, 100 complete control), read-out: Foxtail, Giant plant response rating
# Summary of the method: as §1
# [4] = system: pigweed (Amaranthus retroflexus); assay: Test A preemergence; settings: Amaranthus retroflexus, pre-emergence, 240 h; for pest or weed control at 125 g/ha: 125 g ai/ha, Preemergence, visual injury rating after approximately 10 d, read-out: Pigweed plant response rating (0 to 100 scale, 0 is no effect, 100 is complete control); for pest or weed control at 500 g/ha: 500 g ai/ha, preemergence, visual injury rating about 10 d after treatment, 0 to 100 scale (0 no effect, 100 complete control), read-out: Pigweed plant response rating
# [5] = system: ragweed (common ragweed, Ambrosia elatior); assay: Test A preemergence; settings: Ambrosia artemisiifolia, pre-emergence, 240 h; for pest or weed control at 125 g/ha: 125 g ai/ha, Preemergence, visual injury rating after approximately 10 d, read-out: Ragweed plant response rating (0 to 100 scale, 0 is no effect, 100 is complete control); for pest or weed control at 500 g/ha: 500 g ai/ha, preemergence, visual injury rating about 10 d after treatment, 0 to 100 scale (0 no effect, 100 complete control), read-out: Ragweed plant response rating
# Summary of the method: as §1
# [6] = system: ryegrass, Italian (Italian ryegrass, Lolium multiflorum); assay: Test A preemergence; settings: Lolium multiflorum, pre-emergence, 240 h; for pest or weed control at 125 g/ha: 125 g ai/ha, Preemergence, visual injury rating after approximately 10 d, read-out: Ryegrass, Italian plant response rating (0 to 100 scale, 0 is no effect, 100 is complete control); for pest or weed control at 500 g/ha: 500 g ai/ha, preemergence, visual injury rating about 10 d after treatment, 0 to 100 scale (0 no effect, 100 complete control), read-out: Ryegrass, Italian plant response rating
# Summary of the method: as §1
# [7] = system: Galium (catchweed bedstraw, Galium aparine); assay: Test A postemergence; settings: Galium, post-emergence, 240 h, 125 g ai/ha, Postemergence; visual injury after approximately 10 d; 0 to 100 scale where 0 is no effect and 100 is complete control; read-out: Plant response rating, Galium
# Summary of the method: as §1
# Kochia (Kochia scoparia) [8] = assay: Test A postemergence; settings: Bassia scoparia, post-emergence, 240 h, 125 g ai/ha, Postemergence; visual injury after approximately 10 d; 0 to 100 scale where 0 is no effect and 100 is complete control; read-out: Plant response rating, Kochia
# Summary of the method: as §1
# [9] = system: barnyardgrass (Echinochloa crus-galli); assay: Test A postemergence; settings: Echinochloa crus-galli, post-emergence, 240 h, 125 g ai/ha, Postemergence; visual injury after approximately 10 d; 0 to 100 scale where 0 is no effect and 100 is complete control; read-out: Plant response rating, Barnyardgrass
# Summary of the method: as §1
# [10] = system: blackgrass (Alopecurus myosuroides); assay: Test A postemergence; settings: Alopecurus myosuroides, post-emergence, 240 h, 125 g ai/ha, Postemergence; visual injury after approximately 10 d; 0 to 100 scale where 0 is no effect and 100 is complete control; read-out: Plant response rating, Blackgrass
# Summary of the method: as §1
# corn (Zea mays) = assay: Test A postemergence; settings: Zea mays, post-emergence, 240 h, 125 g ai/ha, Postemergence; visual injury after approximately 10 d; 0 to 100 scale where 0 is no effect and 100 is complete control
# Summary of the method: as §1
# [11] = system: giant foxtail (Setaria faberii); assay: Test A postemergence; settings: Setaria faberi, post-emergence, 240 h, 125 g ai/ha, Postemergence; visual injury after approximately 10 d; 0 to 100 scale where 0 is no effect and 100 is complete control; read-out: Plant response rating, Foxtail, Giant
# Summary of the method: as §1
# [12] = system: pigweed (Amaranthus retroflexus); assay: Test A postemergence; settings: Amaranthus retroflexus, post-emergence, 240 h, 125 g ai/ha, Postemergence; visual injury after approximately 10 d; 0 to 100 scale where 0 is no effect and 100 is complete control; read-out: Plant response rating, Pigweed
# Summary of the method: as §1
# [13] = system: ragweed (common ragweed, Ambrosia elatior); assay: Test A postemergence; settings: Ambrosia artemisiifolia, post-emergence, 240 h, 125 g ai/ha, Postemergence; visual injury after approximately 10 d; 0 to 100 scale where 0 is no effect and 100 is complete control; read-out: Plant response rating, Ragweed
# Summary of the method: as §1
# [14] = system: ryegrass, Italian (Italian ryegrass, Lolium multiflorum); assay: Test A postemergence; settings: Lolium multiflorum, post-emergence, 240 h, 125 g ai/ha, Postemergence; visual injury after approximately 10 d; 0 to 100 scale where 0 is no effect and 100 is complete control; read-out: Plant response rating, Ryegrass, Italian
# Summary of the method: as §1
# [15] = system: wheat (Triticum aestivum); assay: Test A postemergence; settings: Triticum aestivum, post-emergence, 240 h, 125 g ai/ha, Postemergence; visual injury after approximately 10 d; 0 to 100 scale where 0 is no effect and 100 is complete control; read-out: Plant response rating, Wheat
# Summary of the method: as §1
# [16] = system: barnyardgrass (Echinochloa crus-galli); assay: Test B flooded paddy test; settings: Echinochloa crus-galli, Flood, 250 g ai/ha; scale of 0 to 100 where 0 is no effect and 100 is complete control; read-out: Barnyardgrass plant response rating
# Summary of the method: (§2)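 Compound goes directly into floodwater once pots are flooded 3 cm above soil, targeting plants at two leaves; the water depth is then held for the test duration. Plants sit 13–15 d in a greenhouse and are rated visually, 100 denoting complete control.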
# [17] = system: ducksalad (Heteranthera limosa); assay: Test B flooded paddy test; settings: Heteranthera limosa, Flood, 250 g ai/ha; scale of 0 to 100 where 0 is no effect and 100 is complete control; read-out: Ducksalad plant response rating
# Summary of the method: as §2
# rice (Oryra sativa) = assay: Test B flooded paddy test; settings: Oryza sativa, Flood, 250 g ai/ha; scale of 0 to 100 where 0 is no effect and 100 is complete control; read-out: Rice plant response rating
# Summary of the method: as §2
# [18] = system: sedge, umbrella (small-flower umbrella sedge, Cyperus difformis); assay: Test B flooded paddy test; settings: Cyperus difformis, Flood, 250 g ai/ha; scale of 0 to 100 where 0 is no effect and 100 is complete control; read-out: Sedge, Umbrella plant response rating
# Summary of the method: as §2
SMILES,pest or weed control at 125 g/ha (Kochia (Kochia scoparia) [1]) [%],pest or weed control at 500 g/ha (Kochia (Kochia scoparia) [1]) [%],pest or weed control at 125 g/ha [2] [%],pest or weed control at 500 g/ha [2] [%],pest or weed control at 125 g/ha [3] [%],pest or weed control at 500 g/ha [3] [%],pest or weed control at 125 g/ha [4] [%],pest or weed control at 500 g/ha [4] [%],pest or weed control at 125 g/ha [5] [%],pest or weed control at 500 g/ha [5] [%],pest or weed control at 125 g/ha [6] [%],pest or weed control at 500 g/ha [6] [%],pest or weed control at 125 g/ha [7] [%],pest or weed control at 125 g/ha (Kochia (Kochia scoparia) [8]) [%],pest or weed control at 125 g/ha [9] [%],pest or weed control at 125 g/ha [10] [%],"Corn plant response rating (crop injury, 0 = no effect, 100 = complete kill) at 125 g/ha (corn (Zea mays)) [%]",pest or weed control at 125 g/ha [11] [%],pest or weed control at 125 g/ha [12] [%],pest or weed control at 125 g/ha [13] [%],other results
CCOc1cccc([C@H]2CN(C)C(=O)[C@@H]2C(=O)Nc2ccccc2F)c1 [Compound 955],30,70,100,100,100,100,0,0,0,30,70,60,20,20,90,0,0,80,0,0,pest or weed control at 125 g/ha [14]: 30%; plant injury at 125 g/ha [15]: 0%; pest or weed control at 250 g/ha [16]: 70%; pest or weed control at 250 g/ha [17]: 90%; pest or weed control at 250 g/ha (rice (Oryra sativa)): 0%; pest or weed control at 250 g/ha [18]: 0%
O=C1NC[C@H](c2cc(C(F)(F)F)cs2)[C@H]1C(=O)Nc1ccccc1F [Compound 960],20,30,80,90,70,90,0,0,0,0,0,0,0,0,50,20,0,20,0,0,pest or weed control at 125 g/ha [14]: 30%; plant injury at 125 g/ha [15]: 0%; pest or weed control at 250 g/ha [16]: 20%; pest or weed control at 250 g/ha [17]: 100%; pest or weed control at 250 g/ha (rice (Oryra sativa)): 0%; pest or weed control at 250 g/ha [18]: 65%
